Measured values as given in BindingDB's records for patent US20250313563 (The Broad Institute, 2025).
“And” between values parts separate entries of the source, which are not always exact repeats. Identical values can stand only once.

Assays:
[1] = biological target: Glycogen synthase kinase-3 alpha (Homo sapiens, UniProt P49840); experiment: TR-FRET Assay
Procedure, shortened: (§1)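 Signal is measured as TR-FRET between a terbium anti-phospho-Ser641 antibody and streptavidin-d2, added after an EDTA quench. Compounds are preincubated 30 min in assay buffer.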

[2] = biological target: Glycogen synthase kinase-3 beta (Homo sapiens, UniProt P49841); experiment: TR-FRET Assay
Chain of Glycogen synthase kinase-3 beta (P49841 whole entry): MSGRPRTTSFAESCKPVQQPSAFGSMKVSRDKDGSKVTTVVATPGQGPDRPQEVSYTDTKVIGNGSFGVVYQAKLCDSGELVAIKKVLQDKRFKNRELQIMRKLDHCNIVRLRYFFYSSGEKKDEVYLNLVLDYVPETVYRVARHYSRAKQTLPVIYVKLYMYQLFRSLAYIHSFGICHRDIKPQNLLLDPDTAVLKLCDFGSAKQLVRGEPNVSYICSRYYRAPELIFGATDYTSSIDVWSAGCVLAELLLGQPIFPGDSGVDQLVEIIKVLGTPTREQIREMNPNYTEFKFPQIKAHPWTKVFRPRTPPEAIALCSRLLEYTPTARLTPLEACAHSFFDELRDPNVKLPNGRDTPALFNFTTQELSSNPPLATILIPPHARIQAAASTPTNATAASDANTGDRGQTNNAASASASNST
Procedure, shortened: as §1

Chain of Glycogen synthase kinase-3 alpha (P49840 whole entry): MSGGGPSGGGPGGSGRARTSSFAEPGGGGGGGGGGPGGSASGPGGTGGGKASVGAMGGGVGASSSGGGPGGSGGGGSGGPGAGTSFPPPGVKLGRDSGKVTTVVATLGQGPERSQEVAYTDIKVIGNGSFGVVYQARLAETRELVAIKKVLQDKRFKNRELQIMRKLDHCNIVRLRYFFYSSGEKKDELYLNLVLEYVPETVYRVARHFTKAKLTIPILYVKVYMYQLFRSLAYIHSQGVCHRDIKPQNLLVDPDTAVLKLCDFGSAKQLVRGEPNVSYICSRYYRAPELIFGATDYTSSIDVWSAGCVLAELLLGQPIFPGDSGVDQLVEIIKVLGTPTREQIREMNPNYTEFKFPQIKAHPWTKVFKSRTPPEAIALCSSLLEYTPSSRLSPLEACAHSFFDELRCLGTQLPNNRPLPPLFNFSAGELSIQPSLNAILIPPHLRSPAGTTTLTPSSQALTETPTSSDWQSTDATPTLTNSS

SMILES	IC50 [1]	IC50 [2]
CC[C@]1(c2ccccc2)C2=CN=NC2NC2=C1C(=O)C[C@@]1(CCCOC1)C2 (some centres undefined) [US20250313563, Compound 816879]	100 to 1000 nM	100 to 1000 nM
CC[C@]1(c2cccc(C(F)(F)F)c2)C2=CN=NC2NC2=C1C(=O)C[C@]1(CCNC1=O)C2 (some centres undefined) [US20250313563, Compound 950333]	< 100 nM	100 to 1000 nM
CC1(C)CC(=O)C2=C(C1)NC1=C(CN=N1)[C@@]21COC2(CN(C(=O)c3ccccc3)C2)C1 [US20250313563, Compound 943955]	< 100 nM	< 100 nM
CC[C@]1(c2cccc(C(F)(F)F)c2)C2=CN=NC2NC2=C1C(=O)CC(C)(C)C2 (some centres undefined) [US20250313563, Compound 790754]	100 to 1000 nM	1000 to 5000 nM
CC[C@]1(c2cccc(S(=O)(=O)C(C)C)c2)C2=C(CC(C)(C)NC2=O)NC2N=NC(C(F)(F)F)=C21 (some centres undefined) [US20250313563, Compound 948419]	< 100 nM	< 100 nM
CC1(C)CC(=O)C2=C(C1)NC1=C(CN=N1)[C@]21CCO[C@H](C(F)(F)F)C1 [US20250313563, Compound 884023]	1000 to 5000 nM	> 5000 nM
CCC1(c2cccc(Oc3ncccn3)c2)C2=CN=NC2NC2=C1C(=O)CC(C)(C)C2 (centres undefined) [US20250313563, Compound 947400]	< 100 nM	< 100 nM
CCC1(c2cccc(C(C)c3ncccn3)c2)C2=CN=NC2NC2=C1C(=O)CC(C)(C)C2 (centres undefined) [US20250313563, Compound 947434]	< 100 nM	100 to 1000 nM
CC[C@]1(c2cccc(-c3cc(C)nc(C)c3)c2)C2=CN=NC2NC2=C1C(=O)CC(C)(C)C2 (some centres undefined) [US20250313563, Compound 913222]	< 100 nM	100 to 1000 nM
C[C@H]1CCC[C@@]2(C1)C1=C(N=NC1)NC1=C2C(=O)CC(C)(C)C1 [US20250313563, Compound 893318]	100 to 1000 nM	100 to 1000 nM
CC1(C)CC2=C(C(=O)N1)C1(CCN(S(C)(=O)=O)CC1)C1=C(N=NC1)N2 [US20250313563, Compound 943959]	< 100 nM	100 to 1000 nM
CCC1(c2cccc(N3CCOc4ncccc43)c2)C2=CN=NC2NC2=C1C(=O)CC(C)(C)C2 (centres undefined) [US20250313563, Compound 918279]	< 100 nM	< 100 nM
CC[C@@]1(c2cccc(-c3cnn(C)c3F)c2)C2=CN=NC2NC2=C1C(=O)NC(C)(C)C2 (some centres undefined) [US20250313563, Compound 950562]	< 100 nM	100 to 1000 nM
CC[C@]1(c2cccc(C(F)(F)F)c2)C2=CN=NC2NC2=C1C(=O)N(C)C[C@H]2C (some centres undefined) [US20250313563, Compound 883980]	< 100 nM and 100 to 1000 nM	< 100 nM and 1000 to 5000 nM
CC[C@]1(c2cccc(-c3cnn(CCN4CCCC4)c3)c2)C2=CN=NC2NC2=C1C(=O)NC(C)(C)C2 (some centres undefined) [US20250313563, Compound 949510]	> 5000 nM	> 5000 nM
CC1(C)CC(=O)C2=C(C1)NC1=C(CN=N1)C21CCCCC1 [US20250313563, Compound 826650]	< 100 nM	< 100 nM

SMILES	IC50 [1]	IC50 [2]
CC[C@@]1(c2cccc(-c3ccnn3C)c2)C2=CN=NC2NC2=C1C(=O)N[C@@]1(CCCOC1)C2 (some centres undefined) [US20250313563, Compound 949115]	< 100 nM and 100 to 1000 nM	< 100 nM and 1000 to 5000 nM
CCC1(c2cccc(-c3c(C)nnn3C)c2)C2=C(N=NC2)NC2=C1C(=O)C(C)(C)C2 (centres undefined) [US20250313563, Compound 950815]	100 to 1000 nM	1000 to 5000 nM
CC1(C)CC(=O)C2=C(C1)NC1=C(CN=N1)[C@]21C[C@@]2(CCN(CC(F)F)C2)C1 [US20250313563, Compound 913139]	100 to 1000 nM	100 to 1000 nM
CCC1(c2cccc(S(=O)(=O)C3CCOC3)c2)C2=CN=NC2NC2=C1C(=O)CC(C)(C)C2 (centres undefined) [US20250313563, Compound 944018]	< 100 nM	< 100 nM
CC[C@@]1(c2cccc(-c3c4c(nn3C)CCCC4)c2)C2=CN=NC2NC2=C1C(=O)NC(C)(C)C2 (some centres undefined) [US20250313563, Compound 948652]	100 to 1000 nM	> 5000 nM
CC1(C)CC(=O)C2=C(C1)NC1N=NC=C1C21CN(c2ccc(C(F)(F)F)cc2)C1 (centres undefined) [US20250313563, Compound 945478]	100 to 1000 nM	100 to 1000 nM
CC[C@]1(c2cccc(-c3ccncc3F)c2)C2=C(CC(C)(C)NC2=O)NC2N=NC(Cl)=C21 (some centres undefined) [US20250313563, Compound 949756]	> 5000 nM	> 5000 nM
CC1(C)CC(=O)C2=C(C1)NC1=C(CN=N1)C21COC2(CN(C(=O)C3(C)CC(F)C3)C2)C1 (centres undefined) [US20250313563, Compound 947271]	< 100 nM	100 to 1000 nM
CC1(C)CC(=O)C2=C(C1)NC1=C(CN=N1)C21CCN(S(=O)(=O)c2ccc(OC(F)F)cc2)CC1 [US20250313563, Compound 947246]	< 100 nM	< 100 nM and 100 to 1000 nM
CC[C@]1(c2cccc(-c3cnnc(C)c3)c2)C2=CN=NC2NC2=C1C(=O)NC(C)(C)C2 (some centres undefined) [US20250313563, Compound 944071]	1000 to 5000 nM	> 5000 nM
CC1(C)CC(=O)C2=C(C1)NC1=C(CN=N1)C21CC2(CCCC2)C1 [US20250313563, Compound 874477]	< 100 nM and 100 to 1000 nM	< 100 nM and 1000 to 5000 nM
CCN(c1cccc([C@]2(CC)C3=CN=NC3NC3=C2C(=O)CC(C)(C)C3)c1)c1ncccn1 (some centres undefined) [US20250313563, Compound 947334]	100 to 1000 nM	1000 to 5000 nM
CCC1(c2cccc(-c3cnnc(C)c3)c2)C2=CN=NC2NC2=C1C(=O)NC(C)(C)C2 (centres undefined) [US20250313563, Compound 943496]	< 100 nM	1000 to 5000 nM
CC[C@@]1(c2cccc(-c3ccnn3C)c2)C2=C(CC(C)(C)CC2=O)NC2N=NC(C(F)(F)F)=C21 (some centres undefined) [US20250313563, Compound 947372]	< 100 nM	< 100 nM
C[S@@+]([O-])c1cccc([C@]2(C)C3=C(CC(C)(C)CC3=O)NC3=C2C(CC(C)(C)C)N=N3)c1 (some centres undefined) [US20250313563, Compound 126191B:]	> 5000 nM	100 to 1000 nM

Now from value to compound:

IC50 [1]	IC50 [2]	SMILES
1000 to 5000 nM	> 5000 nM	CC[C@@]1(c2cccc(-c3cnn(C4CC4)c3)c2)C2=CN=NC2NC2=C1C(=O)CC(C)(C)C2 (some centres undefined) [US20250313563, Compound 913041]
100 to 1000 nM	> 1670 nM	CC1(C)CC(=O)C2=C(C1)NC1=C(CN=N1)C21CCc2c(F)cccc21 (centres undefined) [US20250313563, Compound 801357]
< 100 nM	< 100 nM	CCC1(c2cccc(-c3cn(C)nc3C)c2)C2=CN=NC2NC2=C1C(=O)CC(C)(C)C2 (centres undefined) [US20250313563, Compound 926840]
< 100 nM	< 100 nM	CC[C@@]1(c2cccc(N3CCOCC3)c2)C2=C(CC(C)(C)NC2=O)NC2N=NC(C(F)(F)F)=C21 (some centres undefined) [US20250313563, Compound 949013]
100 to 1000 nM	1000 to 5000 nM	CC[C@]1(c2cccc(C(F)F)c2)C2=C(CC(C)(C)NC2=O)NC2N=NC(C(F)(F)F)=C21 (some centres undefined) [US20250313563, Compound 951946]
100 to 1000 nM	1000 to 5000 nM	CCN(C(C)=O)c1cccc([C@]2(CC)C3=CN=NC3NC3=C2C(=O)CC(C)(C)C3)c1 (some centres undefined) [US20250313563, Compound 909215]
100 to 1000 nM	1000 to 5000 nM	CC[C@@]1(c2cccc(S(=O)(=O)C(C)C)c2)C2=CN=NC2NC2=C1C(=O)NC(C)(C)C2 (some centres undefined) [US20250313563, Compound 947823]
< 100 nM and 100 to 1000 nM	100 to 1000 nM and > 5000 nM	CC[C@]1(c2cccc(Oc3ncccn3)c2)C2=C(CC(C)(C)NC2=O)NC2N=NC(F)=C21 (some centres undefined) [US20250313563, Compound 951949]
< 100 nM	100 to 1000 nM	CC[C@@]1(c2cccc(-c3cnn(C)c3C)c2)C2=CN=NC2NC2=C1C(=O)NC(C)(C)C2 (some centres undefined) [US20250313563, Compound 945608]
< 100 nM and 100 to 1000 nM	< 100 nM and 1000 to 5000 nM	CC1(C)CC(=O)C2=C(C1)NC1=C(CN=N1)[C@@]21CCN(S(=O)(=O)c2ccccc2)C1 [US20250313563, Compound 951788]
< 100 nM	< 100 nM	CC1(C)CC(=O)C2=C(C1)NC1=C(CN=N1)C21CN(S(=O)(=O)c2ccccc2)C1 [US20250313563, Compound 901474]
100 to 1000 nM	100 to 1000 nM	CC1(C)CC(=O)C2=C(C1)NC1=C(CN=N1)[C@]21COC2(CN(C(=O)Cc3ccccc3)C2)C1 [US20250313563, Compound 948036]
< 100 nM	100 to 1000 nM	CC[C@@]1(c2cccc(-c3cnn4c3OCCC4)c2)C2=CN=NC2NC2=C1C(=O)NC(C)(C)C2 (some centres undefined) [US20250313563, Compound 952019]
100 to 1000 nM	1000 to 5000 nM	CCC1(c2cccc(N(C)c3cnn(C)c3)c2)C2=CN=NC2NC2=C1C(=O)CC(C)(C)C2 (centres undefined) [US20250313563, Compound 885382]
1000 to 5000 nM	> 5000 nM	CC[C@@]1(c2cccc(N3C[C@@H](C)[C@H](C)C3)c2)C2=CN=NC2NC2=C1C(=O)CC(C)(C)C2 (some centres undefined) [US20250313563, Compound 924543]
> 5000 nM	> 5000 nM	CC[C@@]1(c2cccc(C3CN(C(C)=O)C3)c2)C2=CN=NC2NC2=C1C(=O)CC(C)(C)C2 (some centres undefined) [US20250313563, Compound 949132]
< 100 nM	100 to 1000 nM	CCC1(c2cccc(-c3ccnc(OC)c3)c2)C2=C(CC(C)(C)CC2=O)NC2N=NC(C)=C21 (centres undefined) [US20250313563, Compound 883985]
< 100 nM	< 100 nM and 100 to 1000 nM	CC[C@]1(c2cccc(-c3c(C)nn(C)c3C)c2)C2=CN=NC2NC2=C1C(=O)CC(C)(C)C2 (some centres undefined) [US20250313563, Compound 911990]
< 100 nM	100 to 1000 nM	CC[C@@]1(c2cccc(N(C)C(=O)c3ccn(C)n3)c2)C2=CN=NC2NC2=C1C(=O)CC(C)(C)C2 (some centres undefined) [US20250313563, Compound 929442]
1000 to 5000 nM	1000 to 5000 nM	CC1(C)CC(=O)C2=C(C1)NC1=C(CN=N1)C21CN(c2ccccn2)C1 [US20250313563, Compound 945477]
< 100 nM	< 100 nM	CCC1(c2cccc(-c3ccnn3C)c2)C2=CN=NC2NC2=C1C(=O)CC(C)(C)C2 (centres undefined) [US20250313563, Compound 883852]
